Source: US11267806B2, “Indazole compound for use in inhibiting kinase activity, composition and application thereof” (Shenzhen TargetRx, Inc., priority 2017, dated 2022)
Read-outs that look alike come from different tables or passages of the source.

Experiments:
[1] = Pharmacokinetic assay in rats; assay type: in vivo, SD rat; details: male SD rats, i.g., 3 mg/kg; for AUC(0-t) / Cmax / MRT / Tmax: rat, plasma, po
Experimental: (4) Pharmacokinetic Assay in Rats Assay objective: after administration of test compounds to rats, the pharmacokinetic behavior of the compounds disclosed herein was investigated. Assay Animals: Species and strains: SD rat grade: SPF grade Gender and quantity: male, 6 Weight range: 180 to 220 g (the actual weight range was from 187 to 197 g) Assay Procedure: Before blood samples were collected, 20 μL of 2 M sodium fluoride solution (esterase inhibitor) was previously added to an EDTA-K2 anticoagulant tube, dried in an 80° C. oven, and placed in a 4° C. refrigerator. Rats (male, weighing 187 to 197 g) were randomly divided into 2 groups, and were fasted overnight in the afternoon before the experiment but were allowed to drink water freely. Food was given 4 hours after the administration. […] About 100-200 μL of blood was taken from the orbital vein of rats at 15 min, 30 min, 1, 2, 3, 5, 8 and 10 h after administration, placed in a 0.5 mL Eppendorf tube with EDTA-K2 anticoagulant and mixed immediately. After anticoagulation, the tube was gently inverted 5-6 times as quickly as possible. After the blood was taken, it was placed in an ice box, and then within 30 min, the blood sample was centrifuged for 10 min at 4000 rpm and 4° C. to separate the plasma. Immediately after collection of all plasma, it was stored at −20° C. The concentration of the drug in plasma at each time point was determined after sample collection at all time points. Based on the data of the average concentration of the drug in plasma versus time after administration obtained as described above, pharmacokinetics-related parameters of male SD rats after the i.g. administration of test compounds (3 mg/kg) were calculated using the Winnonin software according to non-compartment statistical moment theory.

[2] = Liver microsomal metabolism assay, rat; assay type: in vitro ADME; details: SD, pH 7.4, rat liver microsomes 0.5 mg/mL, compound 1 μM, 37° C.; for microsomal CLint at 1 μM: read-out: Rat liver microsome assay CLint; for half-life at 1 μM: read-out: Rat liver microsome assay t1/2
Experimental: (§1) (3) Liver Microsomal Metabolism Assay
(§2) […]; Coenzyme (NADPH/NADH): 1 mM, Sigma Life Science; Magnesium chloride: 5 mM, 100 mM phosphate buffer (pH 7.4).
(§3) Preparation of stock solutions: Powder of the compounds were accurately weighed and dissolved in DMSO to 5 mM.
(§4) Preparation of phosphate buffer (100 mM, pH7.4): A pre-prepared 0.5M potassium dihydrogen phosphate (150 mL) was mixed with 0.5M dibasic potassium phosphate (700 mL). The pH of the mixture was adjusted to 7.4 with 0.5M dibasic potassium phosphate solution. The mixture was diluted 5-fold with ultrapure water before use, and magnesium chloride was added to obtain a phosphate buffer (100 mM) containing 100 mM potassium phosphate, 3.3 mM magnesium chloride, pH 7.4.
(§5) A NADPH regeneration system solution (containing 6.5 mM NADP, 16.5 mM G-6-P, 3 U/mL G-6-P D, 3.3 mM magnesium chloride) was prepared and placed on wet ice prior to use.
(§6) Incubation of the samples: The stock solutions of the respective compounds were respectively diluted to 0.25 mM with an aqueous solution containing 70% acetonitrile, and used as a working solution, ready for use. 398 μL of the dilution of human liver microsomes or rat liver microsomes were added to 96-well incubation plates (N=2), respectively, and 2 μL of 0.25 mM working solution was added and mixed.
(§7) Metabolic stability assay: 300 μL of pre-chilled stop solution was added to each well of 96-well deep well plates and placed on ice as stop plates. The 96-well incubation plates and NADPH regeneration system were placed in a 37° C. water bath box, shaken at 100 rpm and pre-incubated for 5 min. 80 μL of incubation solution was taken out from each well of the incubation plates and added to the stop plates, mixed, and replenished with 20 μL of NADPH regeneration system solution as a 0-min sample. 80 μL of NADPH regeneration system solution was added to each well of the incubation plates to start the reaction and start counting. […] Separately, 100 μL of the reaction solutions was taken at 10, 30, and 90 min reaction, respectively, added to stop plates, and vortexed for 3 minutes to terminate the reaction. The stop plates were centrifuged at 5000×g at 4° C. for 10 min. 100 μL of the supernatant was added to a 96-well plate to which 100 μL of distilled water was previously added, mixed, and analyzed by LC-MS/MS.
(§8) Data analysis: The peak areas of the corresponding compounds and internal standard were detected by LC-MS/MS system, and the ratio of the peak area of the compounds to the internal standard was calculated.
(§9) The metabolic stability of the compounds in human and rat liver microsomes was evaluated by simultaneously testing and comparing the compounds disclosed herein and the non-deuterated compound. […]

Ba/F3 EML-ALK cells = test: Cytotoxicity assay (cell viability, CellTiter-Glo), Ba/F3 EML-ALK; assay type: cell-based; details: Mus musculus, BaF3, 72 h, read-out: Ba/F3 EML-ALK IC50
[3] = system: Ba/F3 EML-ALK^L1196M cells; test: Cytotoxicity assay (cell viability, CellTiter-Glo), Ba/F3 EML-ALK L1196M; assay type: cell-based; details: Mus musculus, BaF3, 72 h; cell viability, 3 days incubation; read-out: Ba/F3 EML-ALK^L1196M IC50
[4] = Liver microsomal metabolism assay, human; assay type: in vitro ADME; details: pH 7.4, human liver microsomes 0.5 mg/mL, compound 1 μM, 37° C.; for microsomal CLint at 1 μM: read-out: Human liver microsome assay CLint; for half-life at 1 μM: read-out: Human liver microsome assay t1/2
Experimental: as §1, §2, §3, §4, §5, §6, §7, §8, §9

KM12 (TPM3-TRKA) cells = test: cells; details: Homo sapiens, KM12, 72 h, read-out: KM12 IC50
Experimental: (§10) Assay methods: 1. Preparation of cell plates: Ba/F3, and Ba/F3 Bcr-Abl T315I cells were separately seeded in 96-well plates, and 8 ng/ml IL-3 was added to Ba/F3 cells. The cell plates were placed in a carbon dioxide incubator for culture overnight. 2. […] 3. Treatment of cells with compounds: The compounds were transferred to cell plates at a starting concentration of 10 μM. The cell plates were incubated in a carbon dioxide incubator for 3 days. 4. Detection: CellTiter-Glo reagent was added to the cell plates and incubated for 30 minutes at room temperature to stabilize the luminescence signal. Readings were performed using a PerkinElmer Envision multi-label analyzer.

[5] = system: HCC-78 (SLC34A2-ROS1) cells; test: cells; details: Homo sapiens, HCC78, 72 h, read-out: HCC-78 IC50
Experimental: as §10

[6] = cell viability, 3 days incubation

Structure (SMILES)	Cl_pred [1] [mL/min/kg]	F [1] [%]	AUC(0-t) [1] [ng·h/mL]	Cmax [1] [ng/mL]	MRT [1] [min]	Tmax [1] [min]	microsomal CLint at 1 μM [2] [µL/min/mg]	half-life at 1 μM [2] [min]	IC50 (Ba/F3 EML-ALK cells; [6]) [µM]	IC50 [3] [µM]	microsomal CLint at 1 μM [4] [µL/min/mg]	half-life at 1 μM [4] [min]	IC50 (KM12 (TPM3-TRKA) cells) [µM]	IC50 [5] [µM]	IC50 (Ba/F3 EML-ALK cells) [µM]
[2H]C1([2H])CC(Nc2cc(N3CCN(C)CC3)ccc2C(=O)Nc2n[nH]c3ccc(Cc4cc(F)cc(F)c4)cc23)CC([2H])([2H])O1 [Compound T-8, N-(5-(3,5-difluorobenzyl)-1H-indazol-3-yl)-4-(4-methylpiperazin-1-yl)-2-((tetrahydro-2H-pyran-4-yl-2,2,6,6-d4)amino)benzamide]	113	11.78	1530	254	265	200	33.6	41.3	0.05 to 0.15	> 0.2	44.9	30.9			
[2H]C1([2H])N(C)C([2H])([2H])C([2H])([2H])N(c2ccc(C(=O)Nc3n[nH]c4ccc(Cc5cc(F)cc(F)c5)cc34)c(NC3CCOCC3)c2)C1([2H])[2H] [Compound T-2, N-(5-(3,5-difluorobenzyl)-1H-indazol-3-yl)-4-(4-methylpiperazin-1-yl-2,2,3,3,5,5,6,6-d8)-2-((tetrahydro-2H-pyran-4-yl)amino)benzamide]							19.5	71.2			31.3	44.3	0.001 to 0.01	0.01 to 0.05	0.05 to 0.15
[2H]C([2H])([2H])N1C([2H])([2H])C([2H])([2H])N(c2ccc(C(=O)Nc3n[nH]c4ccc(Cc5cc(F)cc(F)c5)cc34)c(NC3CCOCC3)c2)C([2H])([2H])C1([2H])[2H] [Compound T-3, N-(5-(3,5-difluorobenzyl)-1H-indazol-3-yl)-4-(4-(methyl-d3)piperazin-1-yl-2,2,3,3,5,5,6,6-d8)-2-((tetrahydro-2H-pyran-4-yl)amino)benzamide]	411	13.03	1550	237	295	200	27.3	50.7	0.05 to 0.15	> 0.2	39.2	35.4			
[2H]c1cc(C(=O)Nc2n[nH]c3ccc(Cc4cc(F)cc(F)c4)cc23)c(NC2CCOCC2)c([2H])c1N1C([2H])([2H])C([2H])([2H])N(C([2H])([2H])[2H])C([2H])([2H])C1([2H])[2H] [Compound T-6, N-(5-(3,5-difluorobenzyl)-1H-indazol-3-yl)-4-(4-(methyl-d3)piperazin-1-yl-2,2,3,3,5,5,6,6-d8)-2-((tetrahydro-2H-pyran-4-yl)amino)benzamide-3,5-d2]							29.7	46.7	0.05 to 0.15	> 0.2	42.5	32.6			
[2H]c1cc(C(=O)Nc2n[nH]c3ccc(Cc4cc(F)cc(F)c4)cc23)c(NC2CCOCC2)c([2H])c1N1CCN(C([2H])([2H])[2H])CC1 [Compound T-5, N-(5-(3,5-difluorobenzyl)-1H-indazol-3-yl)-4-(4-(methyl-d3)piperazin-1-yl)-2-((tetrahydro-2H-pyran-4-yl)amino)benzamide-3,5-d2]							31	44.7	0.05 to 0.15	> 0.2	48.2	28.8			
[2H]c1c(F)cc(Cc2ccc3[nH]nc(NC(=O)c4ccc(N5CCN(C)CC5)cc4NC4CCOCC4)c3c2)cc1F [Compound T-9]							33.7	41.1	0.05 to 0.15	> 0.2	47.5	29.2			
[2H]C([2H])(c1cc(F)cc(F)c1)c1ccc2[nH]nc(NC(=O)c3ccc(N4CCN(C([2H])([2H])[2H])CC4)cc3NC3CCOCC3)c2c1 [Compound T-11, N-(5-((3,5-difluorophenyl)methyl-d2)-1H-indazol-3-yl)-4-(4-(methyl-d3)piperazin-1-yl)-2-((tetrahydro-2H-pyran-4-yl)amino)benzamide]							31	44.6	0.01 to 0.05	> 0.2	45	30.8			
[2H]C([2H])(c1cc(F)cc(F)c1)c1ccc2[nH]nc(NC(=O)c3ccc(N4CCN(C)CC4)cc3NC3CCOCC3)c2c1 [Compound T-7, N-(5-((3,5-difluorophenyl)methyl-d2)-1H-indazol-3-yl)-4-(4-methylpiperazin-1-yl)-2-((tetrahydro-2H-pyran-4-yl)amino)benzamide]	97.5	13.67	1770	278	317	240	33.7	41.1	0.05 to 0.15	> 0.2	51.1	27.1			
[2H]c1cc(C(=O)Nc2n[nH]c3ccc(Cc4cc(F)cc(F)c4)cc23)c(NC2CCOCC2)c([2H])c1N1CCN(C)CC1 [Compound T-4, N-(5-(3,5-difluorobenzyl)-1H-indazol-3-yl)-4-(4-methylpiperazin-1-yl)-2-((tetrahydro-2H-pyran-4-yl)amino)benzamide-3,5-d]							21.9	63.3	0.05 to 0.15	> 0.2	36.2	38.3			
